How the values were obtained:
[1] = Partition coefficient (logP); format: physicochemical; conditions: octanol/water
[2] = target: T1, Adrenergic receptor alpha-1 (Rattus norvegicus, UniProt P15823+P23944+P43140); experiment: Binding affinity towards alpha-1 adrenergic receptor from rat brain membranes using [3H]prazosin as radioligand
T1 sequence (P15823 whole entry): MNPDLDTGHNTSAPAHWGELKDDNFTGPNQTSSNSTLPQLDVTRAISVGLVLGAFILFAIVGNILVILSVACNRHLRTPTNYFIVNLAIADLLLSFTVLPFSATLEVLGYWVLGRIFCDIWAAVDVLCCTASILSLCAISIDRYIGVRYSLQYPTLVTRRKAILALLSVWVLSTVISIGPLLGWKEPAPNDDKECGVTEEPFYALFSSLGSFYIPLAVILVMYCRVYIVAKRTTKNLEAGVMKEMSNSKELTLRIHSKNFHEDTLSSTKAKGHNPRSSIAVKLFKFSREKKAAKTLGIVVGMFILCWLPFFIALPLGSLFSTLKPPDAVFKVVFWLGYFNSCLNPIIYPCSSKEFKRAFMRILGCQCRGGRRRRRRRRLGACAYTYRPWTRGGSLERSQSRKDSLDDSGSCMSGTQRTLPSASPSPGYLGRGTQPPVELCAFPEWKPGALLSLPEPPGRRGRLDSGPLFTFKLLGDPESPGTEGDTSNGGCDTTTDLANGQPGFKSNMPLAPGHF
T1 sequence (P23944 whole entry): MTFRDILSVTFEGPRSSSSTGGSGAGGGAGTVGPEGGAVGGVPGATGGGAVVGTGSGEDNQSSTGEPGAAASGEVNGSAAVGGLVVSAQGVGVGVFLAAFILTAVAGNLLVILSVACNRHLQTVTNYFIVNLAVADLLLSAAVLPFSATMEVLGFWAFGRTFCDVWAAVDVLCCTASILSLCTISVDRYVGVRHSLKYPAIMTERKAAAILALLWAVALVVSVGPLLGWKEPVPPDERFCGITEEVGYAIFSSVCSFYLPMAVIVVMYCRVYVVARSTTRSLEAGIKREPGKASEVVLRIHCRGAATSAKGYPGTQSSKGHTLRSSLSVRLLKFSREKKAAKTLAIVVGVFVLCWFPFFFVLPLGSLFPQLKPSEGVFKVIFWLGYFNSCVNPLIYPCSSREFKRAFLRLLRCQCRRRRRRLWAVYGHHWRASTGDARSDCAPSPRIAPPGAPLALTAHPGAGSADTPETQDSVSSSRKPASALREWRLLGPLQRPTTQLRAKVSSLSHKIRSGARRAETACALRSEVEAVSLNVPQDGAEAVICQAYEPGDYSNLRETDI
T1 sequence (P43140 whole entry): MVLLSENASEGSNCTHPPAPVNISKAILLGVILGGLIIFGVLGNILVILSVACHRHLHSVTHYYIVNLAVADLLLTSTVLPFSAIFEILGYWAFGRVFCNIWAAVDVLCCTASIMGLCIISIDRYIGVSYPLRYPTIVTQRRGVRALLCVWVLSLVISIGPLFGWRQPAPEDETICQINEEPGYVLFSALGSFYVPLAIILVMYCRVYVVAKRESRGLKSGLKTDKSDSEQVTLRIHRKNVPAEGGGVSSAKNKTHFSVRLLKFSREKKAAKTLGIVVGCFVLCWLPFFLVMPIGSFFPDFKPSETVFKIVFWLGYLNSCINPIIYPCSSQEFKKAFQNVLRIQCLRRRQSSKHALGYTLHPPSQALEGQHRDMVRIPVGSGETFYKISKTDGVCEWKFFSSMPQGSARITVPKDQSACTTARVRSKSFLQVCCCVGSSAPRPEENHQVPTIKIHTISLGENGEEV

[3] = target: T2, D(4) dopamine receptor (Homo sapiens, UniProt P21917); experiment: Binding affinity towards human D4.2 receptor
T2 sequence (P21917 whole entry): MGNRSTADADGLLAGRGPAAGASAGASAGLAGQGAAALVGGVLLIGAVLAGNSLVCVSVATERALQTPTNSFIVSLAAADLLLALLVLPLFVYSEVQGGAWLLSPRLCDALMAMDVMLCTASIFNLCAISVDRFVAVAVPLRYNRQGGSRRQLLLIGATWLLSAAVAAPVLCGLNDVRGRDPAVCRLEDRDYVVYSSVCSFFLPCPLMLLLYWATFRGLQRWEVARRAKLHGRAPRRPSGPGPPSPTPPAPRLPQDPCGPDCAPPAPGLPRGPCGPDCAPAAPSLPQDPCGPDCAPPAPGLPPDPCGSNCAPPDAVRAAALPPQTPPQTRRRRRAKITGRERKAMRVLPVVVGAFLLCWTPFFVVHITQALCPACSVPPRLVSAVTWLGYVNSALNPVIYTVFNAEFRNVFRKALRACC

[4] = target: Histamine H1 receptor (Rattus norvegicus, UniProt P31390); experiment: Binding affinity towards histamine H1 receptor from rat brain membranes using [3H]mepyramine as radioligand
Histamine H1 receptor, sequence (P31390 whole entry): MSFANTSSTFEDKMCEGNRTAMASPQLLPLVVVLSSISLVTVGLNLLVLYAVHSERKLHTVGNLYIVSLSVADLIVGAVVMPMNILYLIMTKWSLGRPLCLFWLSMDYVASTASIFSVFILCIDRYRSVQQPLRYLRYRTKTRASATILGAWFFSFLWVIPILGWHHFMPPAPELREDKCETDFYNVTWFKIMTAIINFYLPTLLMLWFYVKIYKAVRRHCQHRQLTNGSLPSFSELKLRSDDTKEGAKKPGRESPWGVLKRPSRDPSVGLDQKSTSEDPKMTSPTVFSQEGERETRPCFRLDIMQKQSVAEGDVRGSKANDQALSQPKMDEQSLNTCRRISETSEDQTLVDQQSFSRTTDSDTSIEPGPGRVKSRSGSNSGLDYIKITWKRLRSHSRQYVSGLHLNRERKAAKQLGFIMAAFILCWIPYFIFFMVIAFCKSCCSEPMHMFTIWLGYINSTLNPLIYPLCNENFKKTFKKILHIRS

[5] = system: Mus musculus; experiment: Inhibition of apomorphine induced climbing affects in mice by administering the compound perorally in mice; format: functional; conditions: Mus musculus, po; read-out: ED50
[6] = system: Mus musculus; experiment: Inhibition of apomorphine induced climbing affects in mice by administering the compound subcutaneously in mice; format: functional; conditions: sc
[7] = target: T3, Muscarinic acetylcholine receptor M1 (Homo sapiens, UniProt P11229); experiment: Inhibition of binding of 1.0 nM [3H]pirenzepine to cloned human Muscarinic acetylcholine receptor M1 expressed in membranes from CHO-K1 cells; format: cell-based
T3 sequence (P11229 whole entry): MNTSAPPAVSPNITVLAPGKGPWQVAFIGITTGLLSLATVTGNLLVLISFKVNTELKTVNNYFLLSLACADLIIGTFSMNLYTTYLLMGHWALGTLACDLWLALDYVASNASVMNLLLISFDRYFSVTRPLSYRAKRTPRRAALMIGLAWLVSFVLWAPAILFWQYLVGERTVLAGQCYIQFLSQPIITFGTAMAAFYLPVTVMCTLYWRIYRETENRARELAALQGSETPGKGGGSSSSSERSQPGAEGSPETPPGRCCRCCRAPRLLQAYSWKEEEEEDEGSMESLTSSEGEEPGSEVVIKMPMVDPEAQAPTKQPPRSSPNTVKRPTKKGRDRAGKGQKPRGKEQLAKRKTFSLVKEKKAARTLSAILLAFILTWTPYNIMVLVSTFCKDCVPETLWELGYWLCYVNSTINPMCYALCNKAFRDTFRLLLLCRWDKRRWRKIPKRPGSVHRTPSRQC

[8] = system: Rattus norvegicus; experiment: Compound is measured for inhibition of catalepsy in rat by peroral administration of compound; format: functional; conditions: po
[9] = Therapeutic ratio by Peroral dose of administration (quotient ED50 catalepsy/ED50 climbing); format: ADME, organism-based; conditions: in vivo, po; read-out: Therapeutic ratio
[10] = Delta ED50 value by peroral administration (ED50 catalepsy-ED50 Climbing); format: functional
[11] = target: T4, 5-hydroxytryptamine receptor 2C (Rattus norvegicus, UniProt P08909)
T4 sequence (P08909 whole entry): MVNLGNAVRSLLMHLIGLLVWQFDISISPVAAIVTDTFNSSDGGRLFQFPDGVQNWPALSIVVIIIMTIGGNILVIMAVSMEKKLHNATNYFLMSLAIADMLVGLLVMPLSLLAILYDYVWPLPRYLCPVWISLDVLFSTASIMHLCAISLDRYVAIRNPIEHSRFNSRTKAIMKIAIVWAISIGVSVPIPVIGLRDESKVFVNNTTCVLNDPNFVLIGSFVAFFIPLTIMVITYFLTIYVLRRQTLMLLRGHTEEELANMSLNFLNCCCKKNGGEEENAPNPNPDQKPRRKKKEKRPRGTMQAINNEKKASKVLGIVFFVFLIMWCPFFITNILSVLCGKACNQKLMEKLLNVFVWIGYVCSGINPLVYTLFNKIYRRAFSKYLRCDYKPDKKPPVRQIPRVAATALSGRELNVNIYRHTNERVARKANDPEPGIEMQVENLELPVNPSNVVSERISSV
Description: Binding affinity towards 5-HT2C receptor from rat using [3H]mesulergine as radioligand

[12] = target: D(3) dopamine receptor (Homo sapiens, UniProt P35462)
D(3) dopamine receptor, sequence (P35462 whole entry): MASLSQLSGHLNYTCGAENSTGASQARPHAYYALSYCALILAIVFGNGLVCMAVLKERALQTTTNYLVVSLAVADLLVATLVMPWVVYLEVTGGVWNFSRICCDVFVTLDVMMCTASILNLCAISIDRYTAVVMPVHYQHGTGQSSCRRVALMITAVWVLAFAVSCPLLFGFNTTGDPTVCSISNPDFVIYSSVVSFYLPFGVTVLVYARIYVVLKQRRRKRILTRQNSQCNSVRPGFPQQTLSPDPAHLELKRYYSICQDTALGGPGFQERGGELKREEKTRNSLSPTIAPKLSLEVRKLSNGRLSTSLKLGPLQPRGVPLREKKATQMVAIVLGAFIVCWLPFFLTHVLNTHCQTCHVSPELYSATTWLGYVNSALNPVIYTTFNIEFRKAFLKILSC
Description: Binding affinity towards human Dopamine receptor D3

[13] = target: 5-hydroxytryptamine receptor 2A (Rattus norvegicus, UniProt P14842); experiment: biochemical
5-hydroxytryptamine receptor 2A, sequence (P14842 whole entry): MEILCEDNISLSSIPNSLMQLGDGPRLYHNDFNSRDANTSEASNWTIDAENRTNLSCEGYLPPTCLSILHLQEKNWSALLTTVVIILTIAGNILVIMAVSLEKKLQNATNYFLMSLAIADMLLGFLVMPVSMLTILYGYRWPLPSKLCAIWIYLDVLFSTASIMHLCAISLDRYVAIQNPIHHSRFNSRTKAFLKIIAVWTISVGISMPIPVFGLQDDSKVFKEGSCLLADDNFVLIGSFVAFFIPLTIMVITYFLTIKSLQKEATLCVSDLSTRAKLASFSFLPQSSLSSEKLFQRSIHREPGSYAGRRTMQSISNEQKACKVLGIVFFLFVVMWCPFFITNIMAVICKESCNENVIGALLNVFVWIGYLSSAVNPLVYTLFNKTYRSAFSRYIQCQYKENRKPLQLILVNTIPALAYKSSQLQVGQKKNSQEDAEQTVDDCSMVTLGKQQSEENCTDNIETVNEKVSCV
Description: Binding affinity towards 5-hydroxytryptamine 2A receptor from rat frontal cortex using [3H]ketanserin as radioligand

[14] = target: D(1A) dopamine receptor (Rattus norvegicus, UniProt P18901); experiment: biochemical
D(1A) dopamine receptor, sequence (P18901 whole entry): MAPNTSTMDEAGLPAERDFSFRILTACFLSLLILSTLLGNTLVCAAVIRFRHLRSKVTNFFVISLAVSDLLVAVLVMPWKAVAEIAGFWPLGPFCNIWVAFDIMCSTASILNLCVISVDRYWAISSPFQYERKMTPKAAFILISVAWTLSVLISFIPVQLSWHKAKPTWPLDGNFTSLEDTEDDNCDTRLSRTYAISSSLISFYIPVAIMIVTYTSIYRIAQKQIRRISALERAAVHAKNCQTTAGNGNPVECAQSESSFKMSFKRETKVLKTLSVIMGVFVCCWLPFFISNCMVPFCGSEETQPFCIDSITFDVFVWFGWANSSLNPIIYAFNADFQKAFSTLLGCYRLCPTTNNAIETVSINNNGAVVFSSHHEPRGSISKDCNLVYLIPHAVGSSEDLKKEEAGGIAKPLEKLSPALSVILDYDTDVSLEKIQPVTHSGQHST
Description: Binding affinity towards D1 CNS receptor of rat corpus striatum using [3H]SCH-23390 as radioligand

[15] = species: Rattus norvegicus; experiment: Ex vivo accumulation of L-DOPA was measured in striatum of rats
[16] = system: Rattus norvegicus; experiment: Catalepsy percent score in rat by peroral administration of 100 mg/Kg of compound
[17] = system: Mus musculus; experiment: Compound is measured for inhibition of apomorphine induced climbing affects in mice by administering the compound subcutaneously (sc) in mice; format: functional
[18] = system: Rattus norvegicus; experiment: Inhibition of catalepsy in rat by subcutaneous administration of compound; format: functional; conditions: sc
[19] = Antipsychotic activity was determined from subcutaneous administration of compound in mice (ED50 catalepsy-ED50 Climbing); format: functional
[20] = in vivo; conditions: sc
Description: Therapeutic ratio by Subcutaneous dose of administration (quotient ED50 catalepsy/ED50 climbing)

[21] = target: T2, D(4) dopamine receptor; experiment: Compound was tested in vitro for its binding affinity towards human Dopamine receptor D4.2
[22] = target: D(2) dopamine receptor (Homo sapiens, UniProt P14416); experiment: Compound was tested in vitro for its binding affinity towards human Dopamine receptor D2
D(2) dopamine receptor, sequence (P14416 whole entry): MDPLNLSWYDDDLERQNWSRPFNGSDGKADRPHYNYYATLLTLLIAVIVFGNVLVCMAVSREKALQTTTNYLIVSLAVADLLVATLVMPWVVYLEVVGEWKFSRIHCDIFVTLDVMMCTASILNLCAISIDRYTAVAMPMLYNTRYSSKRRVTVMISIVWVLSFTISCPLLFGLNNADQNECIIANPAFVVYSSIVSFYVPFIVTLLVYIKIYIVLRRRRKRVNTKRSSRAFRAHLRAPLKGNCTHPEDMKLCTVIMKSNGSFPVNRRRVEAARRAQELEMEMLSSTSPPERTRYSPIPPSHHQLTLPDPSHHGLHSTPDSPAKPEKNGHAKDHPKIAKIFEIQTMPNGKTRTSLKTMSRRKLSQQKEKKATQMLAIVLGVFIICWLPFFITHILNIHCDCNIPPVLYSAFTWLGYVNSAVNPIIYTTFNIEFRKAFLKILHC

Question: What does the source list for `CN1CCN(C2=Nc3ccccc3Oc3ccc(OS(=O)(=O)C(F)(F)F)cc32)CC1`?
Answer: logP [1]: 3.76; IC50 [2]: 27 nM; IC50 [3]: 150 nM; IC50 [4]: 120 nM; ED50 [5]: 1.3 mg/kg; ED50 [6]: 2.2 mg/kg; IC50 [7]: 490 nM; ED50 [8]: 28 mg/kg; selectivity ratio [9]: 21.5; Delta ED50 [10]: 26.7 mg/kg; IC50 [11]: 100 nM; IC50 [12]: 29 nM; IC50 [13]: 48 nM; IC50 [14]: 66 nM; ED50 [15]: 0.7 mg/kg; Catalepsy [16]: 32%

Question: For `CN1CCN(C2=Nc3ccccc3Sc3ccc(Cl)cc32)CC1` [CLOTHIAPINE], which ED50 [17] is on record?
Answer: 0.27 mg/kg

Question: And the ED50 [18]?
Answer: 0.72 mg/kg

Question: What about the “Delta ED50” value [19] of the same compound?
Answer: 0.45 mg/kg

Question: And the selectivity ratio [20]?
Answer: 2.7

Question: With `CN1CCN(C2=Nc3cc(OS(=O)(=O)C(F)(F)F)ccc3Nc3ccccc32)CC1` as the compound, how does the logP [1] read?
Answer: 3.58

Question: Which logP [1] does the source give for `COc1ccc2c(c1)N=C(N1CCN(C)CC1)c1ccccc1N2` here?
Answer: 2.71

Question: Which logP [1] does the source give for `CN1CCN(C2=Nc3ccccc3Nc3ccc(OS(C)(=O)=O)cc32)CC1` here?
Answer: 1.8

Question: What about the IC50 [2] of the same compound?
Answer: 160 nM

Question: And the IC50 [11]?
Answer: 1200 nM

Question: And the IC50 [14]?
Answer: 2100 nM

Question: With `CN1CCN(C2=Nc3cc(O)ccc3Nc3ccccc32)CC1` as the compound, how does the logP [1] read?
Answer: 2.21

Question: Which logP [1] does the source give for `CN1CCN(C2=Nc3cc(Cl)ccc3Nc3ccccc32)CC1` [CLOZAPINE] here?
Answer: 3.48

Question: And the ED50 [5]?
Answer: 17 mg/kg

Question: What about the ED50 [6] of the same compound?
Answer: 5.6 mg/kg

Question: And the ED50 [8]?
Answer: > 100 mg/kg

Question: And the ED50 [18]?
Answer: > 32.6 mg/kg

Question: And the ED50 [15]?
Answer: 17 mg/kg

Question: Which logP [1] does the source give for `CN1CCN(C2=Nc3ccccc3Oc3ccc(OS(C)(=O)=O)cc32)CC1` here?
Answer: 1.98

Question: What about the IC50 [21] of the same compound?
Answer: > 1000 nM

Question: And the IC50 [22]?
Answer: > 1000 nM

Question: What about the IC50 [12] of the same compound?
Answer: 350 nM

Question: And the IC50 [13]?
Answer: 230 nM

From ChEMBL document CHEMBL1132638, “New (sulfonyloxy)piperazinyldibenzazepines as potential atypical antipsychotics: chemistry and pharmacological evaluation” (J Med Chem, 1999)
